Reference: article PMC11242853, “The Antimicrobial Activity of Human Defensins at Physiological Non-Permeabilizing Concentrations Is Caused by the Inhibition of the Plasma Membrane H^+-ATPases” (International Journal of Molecular Sciences, 2024)
“Also recorded” adds a separate entry of the source. Where no end group is shown, it is not given here.

Experiments:
[1] = design: method as in 19 sources, ref 24; PMID 3290255; doi:10.1172/JCI113527; 24. Lehrer R.I. Ganz T. Szklarek D. Selsted M.E. Modulation of the in vitro candidacidal activity of human neutrophil defensins by target cell metabolism and divalent cations J. Clin. Invest. 1988 81 || [47]; PMID 11083633; doi:10.1128/AAC.44.12.3310-3316.2000; 47. Edgerton M. Koshlukova S.E. Araujo M.W. Patel R.C. Dong J. Bruenn J.A. Salivary histatin 5 and human neutrophil defensin 1 kill Candida albicans via shared pathways Antimicrob. Agents Chemother. 2 ||| ref 20 = [20]; PMID 17074797; doi:10.1128/AAC.00478-06; 20. Vylkova S. Nayyar N. Li W. Edgerton M. Human beta-defensins kill Candida albicans in an energy-dependent and salt-sensitive manner without causing membrane disruption Antimicrob. Agents Chemother. ||| ref 24, 62 (HNP-1); 62, 63 (HNP-4); 20 (hBD-2); 12, 20 (hBD-3); 34, 35, 64 cidal and 65, 66 static (lactoferrin) ||| ref 26 (HNP-1); 12 (HNP-4); 11 (hBD-2, hBD-3); 43, 67 (lactoferrin) ||| ref 14 (HNP-1); 23 (HNP-4); Yes 11, 13 / No 20 (hBD-2); No 20 / Yes 11 (hBD-3); 31, 34, 42 (lactoferrin) ||| ...; settings: cited from earlier work; for Cidal/static: 62 (HNP-1), 62, 63 (HNP-4), 12, 20 (hBD-3), 34, 35, 64 cidal and 65, 66 static (lactoferrin); for Cidal/static / Cell death inhibitors, extracellular: K^+ or Na^+: 20 (hBD-2); for Antimicrobial range: Gm+ Gram-positive bacteria, Gm− Gram-negative bacteria, F fungi, V viruses, P protozoa, no reference given; for Membrane permeabilization: ref 14 (HNP-1), 23 (HNP-4), Yes 11, 13 / No 20 (hBD-2), No 20 / Yes 11 (hBD-3), 31, 34, 42 (lactoferrin); for Membrane depolarization: ref 26 (HNP-1), 12 (HNP-4), 11 (hBD-2, hBD-3), 43, 67 (lactoferrin); for candidacidal activity on C. albicans cells treated with CCCP: CCCP at pH 7.4; for Cell death inhibitors, intracellular: Azide: 24 (HNP-1); for Cell death inhibitors, intracellular: Azide / Cell death inhibitors, extracellular: Ca^2+ or Mg^2+: 20 (hBD-2, hBD-3); for Cell death inhibitors, extracellular: Ca^2+ or Mg^2+: 43 (lactoferrin); for Cell death inhibitors, extracellular: K^+ or Na^+: ref 68 (HNP-1), 69 (HNP-4), No 11, 12 / Yes 20 (hBD-3), 31, 36, 43 (lactoferrin)
[2] = tested on: C. albicans cells; assay: Extracellular potassium measurement (K+-efflux, ICP-MS); type: cell-based, Candida albicans; settings: Table 2; no reference given
Protocol: Potassium measurements were performed via inductively coupled plasma mass spectrometry using an Agilent 7700x ICP-MS (Agilent Technologies, Santa Clara, CA, USA). C. albicans cells were cultured in SDB for 16–20 h at 30 °C. The cells were then subcultured in the same media to the mid-logarithmic growth phase and rapidly washed in sterile, deionized, double-distilled water. The cells (10^7 cells/mL) were immediately incubated with the peptides (NPIC) for 90 min at 37 °C. The tubes were centrifuged at 1100× g for 10 min and the supernatants were collected and stored at 4 °C until analysis. The percentage of cytosolic potassium released from cell suspensions treated with nystatin (50 μM) was determined in positive control assays. Total cellular K^+-content (100% value) was measured in the supernatant of cell suspensions previously treated with 0.5% (v/v) HClO4 alone, heated for 1 h at 95 °C, and centrifuged to remove cell debris. Results are expressed as the percentage (means ± SD) of K^+-release relative to the total cellular K^+-content from duplicates of at least three independent assays.

[3] = tested on: Lactococcus lactis subsp. lactis (strain IL1403); assay: Antimicrobial spread-plate (CFU) killing assay, fermenting L. lactis; type: cell-based; settings: fermentative conditions; range tested 0.062 to 2 µM; Tris buffer, 90 min at 37 °C
Protocol: Microbial susceptibility to the peptides was determined in a spread-plate assay as described previously. Briefly, cell suspensions (10^6 cells/mL) in Tris buffer (10 mM Tris-HCl, pH 7.4) were incubated for 90 min at 37 °C with 2-fold serial peptide dilutions. Peptide concentrations ranged from 0 to 2 μM. After incubation, the number of viable cells was determined by plating aliquots (100 μL) in duplicate on plates (SDA for C. albicans, TSA for P. aeruginosa, and M17G agarified medium for L. lactis) that had been dried for 30 min at room temperature in a laminar flow hood. Plates were incubated for 24–48 h at 30 °C (C. albicans and L. lactis) or 24 h at 37 °C (P. aeruginosa). Dilutions yielding 50–200 colonies were counted. Cell viability values, expressed as colony-forming units (CFUs), were calculated relative to the incubation without added peptides and represent the means ± standard deviation (SD) from duplicates of three independent experiments. For inhibition assays, unless otherwise noted, cell suspensions were preincubated (15 min at 37 °C) with the appropriate inhibitor prior to the addition of peptides, but the inhibitor was present throughout the incubation period with the peptide (90 min at 37 °C). Other specific experimental conditions are described as appropriate. […]

[4] = tested on: P. aeruginosa cells; assay: Permeability assay (propidium iodide uptake, flow cytometry), P. aeruginosa; type: cell-based, Pseudomonas aeruginosa; settings: 90 min at 37 °C, Tris buffer, PI 1 µg/mL
Protocol: To determine whether the above microbicidal concentrations exert a permeabilizing effect on fungal and bacterial membranes, the influx of the fluorescent nucleic acid-binding dye propidium iodide (PI) in cells incubated with the peptides was assessed. In cells, dye uptake reflects membrane permeabilization, as PI itself cannot permeate through an intact phospholipid bilayer. […] To select an antimicrobial but non-permeabilizing concentration of each peptide for further assays, we defined as a non-permeabilizing inhibitory concentration (NPIC) the antimicrobial inhibitory concentration (≤10% viable cells) that permeabilized ≤ 10% of cells incubated (90 min at 37 °C) in buffer solution.

HNP-4: human α-defensin, UniProtKB P12838, 33 amino acids; purchased from PeptaNova (VCSCRLVFCRRTELRVGNCLIGGVSFTYCCTRV; ends and bridges not checked; cysteine pairing not given here; UniProt P12838 64-96, looked up)
Cidal/static ([1]; Table 2): Cidal | Antimicrobial range ([1]; Table 2): Gm +,Gm −,F,V | Membrane permeabilization ([1]; Table 2): Yes | Membrane depolarization ([1]; Table 2): Yes | Partial K^+-efflux [2]: Yes

hBD-3: human β-defensin, UniProtKB Q5U7J2, 45 amino acids; purchased from PeptaNova (GIINTLQKYYCRVRGGRCAVLSCLPKEEQIGKCSTRGRKCCRRKK; Beta-defensin 103; UniProt P81534 23-67, looked up)
candidacidal activity on C. albicans cells treated with CCCP [1]: protected | Cell death inhibitors, intracellular: Azide ([1]; Table 2, 34 (lactoferrin)): Yes | Cidal/static ([1]; Table 2): Cidal | Antimicrobial range ([1]; Table 2): Gm +,Gm −, F,V,P | Cell death inhibitors, extracellular: Ca^2+ or Mg^2+ ([1]; Table 2, ref 24 (HNP-1)): No | Membrane depolarization ([1]; Table 2): Yes | Cell death inhibitors, extracellular: K^+ or Na^+ ([1]; Table 2): No and Yes | Partial K^+-efflux [2]: Yes

HNP-1: human α-defensin, UniProtKB P59665, 30 amino acids, three disulfide bonds; purchased from PeptaNova
calculated NPIC against fermenting L. lactis [3]: 0.125 µM | concentration showing permeabilizing activity (increase in intracellular PI), P. aeruginosa [4]: ≥ 0.5 µM | candidacidal activity on C. albicans cells treated with CCCP [1]: protected | Cell death inhibitors, intracellular: Azide ([1]; Table 2, 34 (lactoferrin)): Yes | Cidal/static ([1]; Table 2): Cidal | Antimicrobial range ([1]; Table 2): Gm +,Gm −,F,V,P | ATP-efflux ([1]; Table 2): Yes | Cell death inhibitors, intracellular: Antimycin A (+SHAM) ([1]; Table 2): Yes | Membrane permeabilization ([1]; Table 2): Yes | Cell death inhibitors, extracellular: Ca^2+ or Mg^2+ ([1]; Table 2, ref 24 (HNP-1)): Yes (Ca^2+); also recorded: No (Mg^2+) | Cell death inhibitors, intracellular: CCCP or DNP ([1]; Table 2, ref 24 (HNP-1), 34 (lactoferrin)): Yes | Cell death inhibitors, extracellular: Anoxia ([1]; Table 2, ref 24 (HNP-1), 34, 35 (lactoferrin)): Yes | Membrane depolarization ([1]; Table 2): Yes | ATP increment ([1]; Table 2, ref 47 (HNP-1), 35 (lactoferrin)): Yes | Cell death inhibitors, extracellular: K^+ or Na^+ ([1]; Table 2): Yes | Partial K^+-efflux [2]: Yes
